{
  "source": "patent US8629276B2",
  "about": "“Inhibitors of human immunodeficiency virus replication” (priority 2012, dated 2014)",
  "data": [
    {"test_system": "recombinant NL-Rluc virus", "assay": "Inhibition of HIV replication (NL-RLuc virus, luciferase readout in MT-2 cells)", "assay_type": "cell-based", "conditions": "Human immunodeficiency virus 1, MT2, 120 h", "units": {"EC50": "nM"}, "values": [
      {"smiles": "CC(C)c1nc2c(c(-c3ccc(F)cc3)c1C(OC(C)(C)C)C(=O)O)CN(C(=O)CCc1ccccc1)CC2(C)C", "note": "(stereo not shown) [Example 12, 2-tert-Butoxy-2-(4-(4-fluorophenyl)-2-isopropyl-8,8-dimethyl-6-(3-phenylpropanoyl)-5,6,7,8-tetrahydro-1,6-naphthyridin-3-yl)acetic acid]", "EC50": 7130},
      {"smiles": "Cc1ccc(-c2c3c(nc(C)c2C(OC(C)(C)C)C(=O)O)CCN(C)C3)cc1", "note": "(stereo not shown) [Example 23, 2-(tert-Butoxy)-2-(2,6-dimethyl-4-(p-tolyl)-5,6,7,8-tetrahydro-1,6-naphthyridin-3-yl)acetic acid]", "EC50": 2080},
      {"smiles": "CC(C)c1nc2c(c(-c3ccc(F)cc3)c1C(OC(C)(C)C)C(=O)O)CN(C(=O)[C@@H]1C[C@H]1c1ccccc1)CC2(C)C", "note": "(stereo partly drawn) [Example 8, 2-tert-Butoxy-2-(4-(4-fluorophenyl)-2-isopropyl-8,8-dimethyl-6-((1R,2R)-2-phenylcyclopropanecarbonyl)-5,6,7,8-tetrahydro-1,6-naphthyridin-3-yl)acetic acid]", "EC50": 6720},
      {"smiles": "Cc1ccc(-c2c3c(nc(C)c2C(OC(C)(C)C)C(=O)O)CCN(CCc2ccccc2)C3)cc1", "note": "(stereo not shown) [Example 24, 2-(tert-Butoxy)-2-(2-methyl-6-phenethyl-4-(p-tolyl)-5,6,7,8-tetrahydro-1,6-naphthyridin-3-yl)acetic acid]", "EC50": 240},
      {"smiles": "Cc1nc2c(c(-c3cc(F)c4c(c3C)CCCO4)c1[C@H](OC(C)(C)C)C(=O)O)CN(CCCc1ccccc1)CC2(C)C", "note": "[Example 40, (2S)-2-(tert-Butoxy)-2-(4-(8-fluoro-5-methylchroman-6-yl)-2,8,8-trimethyl-6-(3-phenylpropyl)-5,6,7,8-tetrahydro-1,6-naphthyridin-3-yl)acetic acid]", "EC50": 2},
      {"smiles": "Cc1nc2c(c(-c3cc(F)c4c(c3C)CCCO4)c1[C@H](OC(C)(C)C)C(=O)O)CN(CCCc1ccc(Cl)cc1)CC2", "note": "(atropisomer, axis not shown) [Example 44, (2S)-2-(tert-Butoxy)-2-(6-(3-(4-chlorophenyl)propyl)-(R)-4-(8-fluoro-5-methylchroman-6-yl)-2-methyl-5,6,7,8-tetrahydro-1,6-naphthyridin-3-yl)acetic acid]", "EC50": 3},
      {"smiles": "Cc1ccc(-c2c3c(nc(C)c2C(OC(C)(C)C)C(=O)O)CCN(C(=O)[C@H](Cc2ccccc2)NS(=O)(=O)c2ccc(C)cc2)C3)cc1", "note": "(stereo in doubt) [Example 32, 2-(tert-Butoxy)-2-(2-methyl-6-(2-(4-methylphenylsulfonamido)-3-phenylpropanoyl)-4-(p-tolyl)-5,6,7,8-tetrahydro-1,6-naphthyridin-3-yl)acetic acid]", "EC50": 2300},
      {"smiles": "CC(C)c1nc2c(c(-c3ccc(F)cc3)c1C(OC(C)(C)C)C(=O)O)CN(C(=O)Cc1ccccc1)CC2(C)C", "note": "(stereo not shown) [Example 7, 2-tert-Butoxy-2-(4-(4-fluorophenyl)-2-isopropyl-8,8-dimethyl-6-(2-phenylacetyl)-5,6,7,8-tetrahydro-1,6-naphthyridin-3-yl)acetic acid]", "EC50": 7540},
      {"smiles": "Cc1ccc(-c2c3c(nc(C)c2[C@H](OC(C)(C)C)C(=O)O)CCN(C(=O)CCCc2ccccc2)C3)cc1", "note": "[Example 36, (S)-2-(tert-Butoxy)-2-(2-methyl-6-(4-phenylbutanoyl)-4-(p-tolyl)-5,6,7,8-tetrahydro-1,6-naphthyridin-3-yl)acetic acid]", "EC50": 52},
      {"smiles": "Cc1ccc(-c2c3c(nc(C)c2C(OC(C)(C)C)C(=O)O)CCN(S(C)(=O)=O)C3)cc1", "note": "(stereo not shown) [Example 22, 2-(tert-Butoxy)-2-(2-methyl-6-(methylsulfonyl)-4-(p-tolyl)-5,6,7,8-tetrahydro-1,6-naphthyridin-3-yl)acetic acid]", "EC50": 2650},
      {"smiles": "COc1ccc(CCCN2CCc3nc(C)c([C@H](OC(C)(C)C)C(=O)O)c(-c4ccc(C)cc4)c3C2)cc1", "note": "[Example 33, (S)-2-(tert-Butoxy)-2-(6-(3-(4-methoxyphenyl)propyl)-2-methyl-4-(p-tolyl)-5,6,7,8-tetrahydro-1,6-naphthyridin-3-yl)acetic acid]", "EC50": 17},
      {"smiles": "Cc1ccc(-c2c3c(nc(C)c2[C@H](OC(C)(C)C)C(=O)O)CCN(Cc2cccc(Cl)c2)C3)cc1", "note": "[Example 39, (S)-2-(tert-Butoxy)-2-(6-(3-chlorobenzyl)-2-methyl-4-(p-tolyl)-5,6,7,8-tetrahydro-1,6-naphthyridin-3-yl)acetic acid]", "EC50": 137},
      {"smiles": "CC(C)c1nc2c(c(-c3ccc(F)cc3)c1C(OC(C)(C)C)C(=O)O)CN(C(=O)CCCc1ccccc1)CC2(C)C", "note": "(stereo not shown) [Example 9, 2-tert-Butoxy-2-(4-(4-fluorophenyl)-2-isopropyl-8,8-dimethyl-6-(4-phenylbutanoyl)-5,6,7,8-tetrahydro-1,6-naphthyridin-3-yl)acetic acid]", "EC50": 6710},
      {"smiles": "CC(C)c1nc2c(c(-c3ccc(F)cc3)c1C(OC(C)(C)C)C(=O)O)CN(C(=O)c1ccc(F)cc1)CC2(C)C", "note": "(stereo not shown) [Example 4, 2-tert-Butoxy-2-(6-(4-fluorobenzoyl)-4-(4-fluorophenyl)-2-isopropyl-8,8-dimethyl-5,6,7,8-tetrahydro-1,6-naphthyridin-3-yl)acetic acid]", "EC50": 3160},
      {"smiles": "Cc1nc2c(c(-c3cc(F)c4c(c3C)CCCO4)c1[C@H](OC(C)(C)C)C(=O)O)CN(Cc1cccc(Cl)c1)CC2(C)C", "note": "[Example 37, (2S)-2-(tert-Butoxy)-2-(6-(3-chlorobenzyl)-4-(8-fluoro-5-methylchroman-6-yl)-2,8,8-trimethyl-5,6,7,8-tetrahydro-1,6-naphthyridin-3-yl)acetic acid]", "EC50": 69},
      {"smiles": "Cc1nc2c(c(-c3cc(F)c4c(c3C)CCCO4)c1[C@H](OC(C)(C)C)C(=O)O)CN(CCCc1ccccc1)CC2", "note": "(atropisomer, axis not shown) [Example 42, (2S)-2-(tert-Butoxy)-2-((R)-4-(8-fluoro-5-methylchroman-6-yl)-2-methyl-6-(3-phenylpropyl)-5,6,7,8-tetrahydro-1,6-naphthyridin-3-yl)acetic acid]", "EC50": 7},
      {"smiles": "Cc1ccc(S(=O)(=O)N[C@@H](Cc2ccccc2)C(=O)N2Cc3c(nc(C(C)C)c(C(OC(C)(C)C)C(=O)O)c3-c3ccc(F)cc3)C(C)(C)C2)cc1", "note": "(stereo in doubt) [Example 10, 2-tert-Butoxy-2-(4-(4-fluorophenyl)-2-isopropyl-8,8-dimethyl-6-(2-(4-methylphenylsulfonamido)-3-phenylpropanoyl)-5,6,7,8-tetrahydro-1,6-naphthyridin-3-yl)acetic acid]", "EC50": 777},
      {"smiles": "Cc1nc2c(c(-c3cc(F)c4c(c3C)CCCO4)c1[C@H](OC(C)(C)C)C(=O)O)CN(CCCc1cccc(C(F)(F)F)c1)CC2", "note": "(atropisomer, axis not shown) [Example 53]", "EC50": 2},
      {"smiles": "Cc1nc2c(c(-c3ccc(Cl)cc3)c1[C@H](OC(C)(C)C)C(=O)O)CN(C(=O)OCc1ccccc1)CC2", "note": "[Example 38, (S)-2-(6-((Benzyloxy)carbonyl)-4-(4-chlorophenyl)-2-methyl-5,6,7,8-tetrahydro-1,6-naphthyridin-3-yl)-2-(tert-butoxy)acetic acid]", "EC50": 543},
      {"smiles": "Cc1nc2c(c(-c3cc(F)c4c(c3C)CCCO4)c1[C@H](OC(C)(C)C)C(=O)O)CN(CCCc1ccc(F)cc1)CC2", "note": "(atropisomer, axis not shown) [Example 45, (S)-2-(tert-Butoxy)-2-((R)-4-(8-fluoro-5-methylchroman-6-yl)-6-(3-(4-fluorophenyl)propyl)-2-methyl-5,6,7,8-tetrahydro-1,6-naphthyridin-3-yl)acetic acid]", "EC50": 4},
      {"smiles": "CC(C)c1nc2c(c(-c3ccc(F)cc3)c1C(OC(C)(C)C)C(=O)O)CN(Cc1ccc(F)cc1)CC2(C)C", "note": "(stereo not shown) [Example 16, 2-tert-Butoxy-2-(6-(4-fluorobenzyl)-4-(4-fluorophenyl)-2-isopropyl-8,8-dimethyl-5,6,7,8-tetrahydro-1,6-naphthyridin-3-yl)acetic acid]", "EC50": 6920},
      {"smiles": "CC(C)c1nc2c(c(-c3ccc(F)cc3)c1C(OC(C)(C)C)C(=O)O)CN(c1ccccc1)CC2(C)C", "note": "(stereo not shown) [Example 15, 2-tert-Butoxy-2-(4-(4-fluorophenyl)-2-isopropyl-8,8-dimethyl-6-phenyl-5,6,7,8-tetrahydro-1,6-naphthyridin-3-yl)acetic acid]", "EC50": 2090},
      {"smiles": "Cc1ccc(CCCN2CCc3nc(C)c([C@H](OC(C)(C)C)C(=O)O)c(-c4cc(F)c5c(c4C)CCCO5)c3C2)cc1F", "note": "(atropisomer, axis not shown) [Example 51]", "EC50": 1},
      {"smiles": "Cc1nc2c(c(-c3cc(F)c4c(c3C)CCCO4)c1[C@H](OC(C)(C)C)C(=O)O)CN(CC1CC1c1ccccc1)CC2", "note": "(stereo partly drawn) [Example 50, (2S)-2-(tert-Butoxy)-2-((R)-4-(8-fluoro-5-methylchroman-6-yl)-2-methyl-6-((2-phenylcyclopropyl)methyl)-5,6,7,8-tetrahydro-1,6-naphthyridin-3-yl)acetic acid]", "EC50": 5},
      {"smiles": "Cc1onc(-c2ccccc2)c1C(=O)N1Cc2c(nc(C(C)C)c(C(OC(C)(C)C)C(=O)O)c2-c2ccc(F)cc2)C(C)(C)C1", "note": "(stereo not shown) [Example 14, 2-tert-Butoxy-2-(4-(4-fluorophenyl)-2-isopropyl-8,8-dimethyl-6-(5-methyl-3-phenylisoxazole-4-carbonyl)-5,6,7,8-tetrahydro-1,6-naphthyridin-3-yl)acetic acid]", "EC50": 10200},
      {"smiles": "CC(C)c1nc2c(c(-c3ccc(F)cc3)c1C(OC(C)(C)C)C(=O)O)CN(c1cccc(-c3ccccc3)c1)CC2(C)C", "note": "(stereo not shown) [Example 17, 2-(6-([1,1′-Biphenyl]-3-yl)-4-(4-fluorophenyl)-2-isopropyl-8,8-dimethyl-5,6,7,8-tetrahydro-1,6-naphthyridin-3-yl)-2-(tert-butoxy)acetic acid]", "EC50": 4600},
      {"smiles": "CC(C)c1nc2c(c(-c3ccc(F)cc3)c1C(OC(C)(C)C)C(=O)O)CN(C(=O)c1ccc(-c3ccccc3)cc1)CC2(C)C", "note": "(stereo not shown) [Example 13, 2-(6-(Biphenylcarbonyl)-4-(4-fluorophenyl)-2-isopropyl-8,8-dimethyl-5,6,7,8-tetrahydro-1,6-naphthyridin-3-yl)-2-tert-butoxyacetic acid]", "EC50": 2010},
      {"smiles": "Cc1ccc(-c2c3c(nc(C)c2C(OC(C)(C)C)C(=O)O)CCN(Cc2ccccc2)C3)cc1", "note": "(stereo not shown) [Example 21, 2-(6-Benzyl-2-methyl-4-(p-tolyl)-5,6,7,8-tetrahydro-1,6-naphthyridin-3-yl)-2-(tert-butoxy)acetic acid]", "EC50": 295}
    ]}
  ]
}
